From PubChem BioAssay AID330 (DTP/NCI, 2004)
Where “and” joins values, the source holds several entries; their conditions need not be identical. Identical values can stand only once. Inconclusive results and toxic doses are left out. The calls were made as follows: active = survival T/C of 150% or more; inactive = T/C below 125% in these data.

Test system: P388 leukemia ip, CD2F1 mice, survival T/C
Assay: NCI In Vivo Anticancer Drug Screen. Data for tumor model P388 Leukemia (intraperitoneal) in CD2F1 (CDF1) mice
Conditions: endpoint: median survival time, higher = longer survival
Summary of the method: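 Mice carrying the transplanted tumor received test compound or vehicle. Survival was recorded in each group, and the value is the treated-group measurement divided by that of the vehicle-treated control group.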

[1] = dose: 100.0 mg/kg/injection, schedule: Q01DX009 (ip), vehicle: Klucel (hydroxypropylcellulose) (HPC)
[2] = dose: 200.0 mg/kg/injection, schedule: Q01DX009 (ip), vehicle: Klucel (hydroxypropylcellulose) (HPC)
[3] = dose: 50.0 mg/kg/injection, schedule: Q01DX009 (ip), vehicle: saline with Tween-80
[4] = dose: 100.0 mg/kg/injection, schedule: Q01DX009 (ip), vehicle: saline with Tween-80
[5] = dose: 200.0 mg/kg/injection, schedule: Q01DX009 (ip), vehicle: saline with Tween-80
[6] = dose: 15.0 mg/kg/injection, schedule: Q01DX005 (ip), vehicle: saline with Tween-80
[7] = dose: 120.0 mg/kg/injection, schedule: Q01DX005 (ip), vehicle: saline with Tween-80
[8] = dose: 50.0 mg/kg/injection, schedule: Q01DX005 (ip), vehicle: Klucel (hydroxypropylcellulose) (HPC)
[9] = dose: 100.0 mg/kg/injection, schedule: Q01DX005 (ip), vehicle: Klucel (hydroxypropylcellulose) (HPC)
[10] = dose: 200.0 mg/kg/injection, schedule: Q01DX005 (ip), vehicle: Klucel (hydroxypropylcellulose) (HPC)
[11] = dose: 60.0 mg/kg/injection, schedule: Q01DX005 (ip), vehicle: saline with Tween-80
[12] = dose: 240.0 mg/kg/injection, schedule: Q01DX005 (ip), vehicle: saline with Tween-80
[13] = dose: 50.0 mg/kg/injection, schedule: Q01DX005 (ip), vehicle: saline with Tween-80
[14] = dose: 100.0 mg/kg/injection, schedule: Q01DX005 (ip), vehicle: saline with Tween-80
[15] = dose: 200.0 mg/kg/injection, schedule: Q01DX005 (ip), vehicle: saline with Tween-80
[16] = dose: 400.0 mg/kg/injection, schedule: Q01DX009 (ip), vehicle: saline with Tween-80
[17] = dose: 60.0 mg/kg/injection, schedule: Q01DX005 (ip), vehicle: Klucel (hydroxypropylcellulose) (HPC)
[18] = dose: 120.0 mg/kg/injection, schedule: Q01DX005 (ip), vehicle: Klucel (hydroxypropylcellulose) (HPC)
[19] = dose: 240.0 mg/kg/injection, schedule: Q01DX005 (ip), vehicle: Klucel (hydroxypropylcellulose) (HPC)

Measured: T/C

CSc1nnc2n(N)cnn12
inactive: dose: 100.0 mg/kg/injection, schedule: Q04DX002 (ip), vehicle: water 107 % of control | dose: 200.0 mg/kg/injection, schedule: Q04DX002 (ip), vehicle: water 106 % of control | dose: 400.0 mg/kg/injection, schedule: Q04DX002 (ip), vehicle: water 106 % of control

O=c1oc(-c2cccc(F)c2)ns1
inactive: [1] 115 % of control | [2] 116 % of control | dose: 400.0 mg/kg/injection, schedule: Q01DX009 (ip), vehicle: Klucel (hydroxypropylcellulose) (HPC) 115 % of control

C/C=C/CC1(CC)C(=O)NC(=S)NC1=O
inactive: [3] 100 % of control

O=C(Nc1cccc(Cl)c1)Sc1c(Cl)c(Cl)c(Cl)c(Cl)c1Cl
inactive: [3] 106 % of control | [4] 109 % of control | [5] 112 % of control

CC1=NN(c2ccccc2)C(=O)/C1=C(\[O-])c1ccccc1.CC1=NN(c2ccccc2)C(=O)/C1=C(\[O-])c1ccccc1.CC1=NN(c2ccccc2)C(=O)/C1=C(\[O-])c1ccccc1.[Fe+3]
inactive: [6] 96 % of control and 97 % of control | dose: 30.0 mg/kg/injection, schedule: Q01DX005 (ip), vehicle: saline with Tween-80 101 % of control and 90 % of control | [7] 104 % of control and 87 % of control

O=C(OCC(Cl)(Cl)Cl)N1[C@@H]2C=C[C@@H](N1C(=O)OCC(Cl)(Cl)Cl)[C@@]13CC(OCc4ccc(Br)cc4)CC21O3 (some centres not stated)
inactive: [8] 105 % of control | [9] 95 % of control | [10] 95 % of control

Cn1c(=O)[nH]c(=O)c2nc(-c3ccc(Cl)cc3)cnc21
inactive: dose: 100.0 mg/kg/injection, schedule: Q04DX002 (ip), vehicle: saline with Tween-80 94 % of control | dose: 200.0 mg/kg/injection, schedule: Q04DX002 (ip), vehicle: saline with Tween-80 97 % of control | dose: 400.0 mg/kg/injection, schedule: Q04DX002 (ip), vehicle: saline with Tween-80 97 % of control

Cn1c(-c2ccccc2)c(-c2ccccc2)c(=O)c(-c2ccccc2)c1-c1ccccc1
inactive: dose: 50.0 mg/kg/injection, schedule: Q01DX009 (ip), vehicle: Klucel (hydroxypropylcellulose) (HPC) 92 % of control | [1] 92 % of control | [2] 91 % of control

COC(=O)C1(c2ccc(OC)cc2)NC(c2ccccc2)C2C(=O)N(c3ccc(OC)cc3)C(=O)C21 (configuration not stated)
inactive: [11] 95 % of control | [7] 96 % of control | [12] 89 % of control

Cc1c2occc2cc2c1oc(=O)c1cnccc12
inactive: [8] 105 % of control | [9] 100 % of control | [10] 98 % of control

CC1C(c2ccccc2)N(C)C(c2ccccc2)C(C)C1(O)c1ccccc1 (configuration not stated)
inactive: [13] 97 % of control | [14] 94 % of control | [15] 94 % of control

Cc1ccc(Nc2nc(N)nc3nc(N)c(C(N)=O)nc23)cc1
inactive: dose: 25.0 mg/kg/injection, schedule: Q01DX009 (ip), vehicle: saline with Tween-80 100 % of control | [3] 100 % of control | [4] 91 % of control

CCOC(=O)NNC(=O)Nc1ccc(O[Si](C)(C)C)cc1
inactive: [11] 109 % of control | [7] 102 % of control | [12] 100 % of control

COc1ccc2c(c1OC)Oc1c(OC)ccc3c1C(C2)N(C)C[C@@H]3O (some centres not stated)
inactive: dose: 5.75 mg/kg/injection, schedule: Q01DX005 (ip), vehicle: Klucel (hydroxypropylcellulose) (HPC) 103 % of control | dose: 11.5 mg/kg/injection, schedule: Q01DX005 (ip), vehicle: Klucel (hydroxypropylcellulose) (HPC) 109 % of control | dose: 23.0 mg/kg/injection, schedule: Q01DX005 (ip), vehicle: Klucel (hydroxypropylcellulose) (HPC) 100 % of control | dose: 46.0 mg/kg/injection, schedule: Q01DX005 (ip), vehicle: Klucel (hydroxypropylcellulose) (HPC) 99 % of control

S=c1nn[nH]n1-c1cccc2ccccc12
inactive: dose: 100.0 mg/kg/injection, schedule: Q04DX003 (ip), vehicle: saline sonified 90 % of control | dose: 200.0 mg/kg/injection, schedule: Q04DX003 (ip), vehicle: saline sonified 100 % of control | dose: 400.0 mg/kg/injection, schedule: Q04DX003 (ip), vehicle: saline sonified 100 % of control

COc1cc(-c2cc(=O)c3c(O)cc(O)cc3o2)cc(OC)c1O
inactive: dose: 5.0 mg/kg/injection, schedule: Q01DX009 (ip), vehicle: Klucel (hydroxypropylcellulose) (HPC) 100 % of control | dose: 10.0 mg/kg/injection, schedule: Q01DX009 (ip), vehicle: Klucel (hydroxypropylcellulose) (HPC) 98 % of control | dose: 20.0 mg/kg/injection, schedule: Q01DX009 (ip), vehicle: Klucel (hydroxypropylcellulose) (HPC) 100 % of control | dose: 40.0 mg/kg/injection, schedule: Q01DX009 (ip), vehicle: Klucel (hydroxypropylcellulose) (HPC) 90 % of control

OC(c1ccccc1)C(C(c1ccccc1)N1CCCc2ccccc21)N1CCOCC1 (configuration not stated)
inactive: [8] 99 % of control | [9] 93 % of control | [10] 90 % of control

CC(=O)c1ccc2c(c1)[nH]c1ccccc12
inactive: [4] 86 % of control | [5] 90 % of control | [16] 90 % of control

C[n+]1c(C2(O)CCCCCCCCCCC2)sc2ccccc21
inactive: [17] 95 % of control | [18] 100 % of control | [19] 115 % of control

CC12OC(c3ccccc3)C(C)(OC1c1ccccc1)O2 (configuration not stated)
inactive: [17] 102 % of control | [18] 100 % of control | [19] 98 % of control

CCCCN(CC)CCCCCCCCCCN1CCCc2cc(OC)ccc21
inactive: dose: 12.5 mg/kg/injection, schedule: Q01DX005 (ip), vehicle: saline with Tween-80 101 % of control | dose: 25.0 mg/kg/injection, schedule: Q01DX005 (ip), vehicle: saline with Tween-80 111 % of control | [13] 115 % of control | [14] 107 % of control

COc1ccc2c(c1)C(=O)OC2
inactive: [3] 102 % of control | [4] 101 % of control | [5] 99 % of control

CCOC(=O)C(=O)Nc1c(C(C)=O)cc(C)c(C)c1C#N
inactive: dose: 50.0 mg/kg/injection, schedule: Q01DX009 (ip), vehicle: saline + alcohol 92 % of control | dose: 100.0 mg/kg/injection, schedule: Q01DX009 (ip), vehicle: saline + alcohol 97 % of control | dose: 200.0 mg/kg/injection, schedule: Q01DX009 (ip), vehicle: saline + alcohol 96 % of control

CCC(Cl)C#N (configuration not stated)
inactive: dose: 7.5 mg/kg/injection, schedule: Q01DX005 (ip), vehicle: saline with Tween-80 106 % of control | [6] 100 % of control

O=C1CSC(c2cccc(F)c2)N1c1nncs1 (configuration not stated)
inactive: [11] 98 % of control | [7] 105 % of control | [12] 106 % of control

NC(=O)N=Nc1cccc(Cl)c1
inactive: [13] 98 % of control | [14] 104 % of control | [15] 104 % of control

c1ccc2sc(SSc3nc4ccccc4s3)nc2c1
inactive: [3] 110 % of control | [4] 108 % of control | [5] 104 % of control | [16] 109 % of control

C[C@H](C(O)CC(=O)C(C)(C)O)[C@H]1CC[C@@]2(C)[C@@H]3CC[C@H]4C(C)(C)[C@@H](OC5OC(COC6OC(CO)C(O)C(O)C6O)C(O)C(O)C5O)CC[C@]4(C)C3=CC[C@]12C (some centres not stated)
inactive: dose: 9.25 mg/kg/injection, schedule: Q01DX005 (ip), vehicle: saline 100 % of control | dose: 18.5 mg/kg/injection, schedule: Q01DX005 (ip), vehicle: saline 100 % of control | dose: 37.0 mg/kg/injection, schedule: Q01DX005 (ip), vehicle: saline 112 % of control | dose: 74.0 mg/kg/injection, schedule: Q01DX005 (ip), vehicle: saline 105 % of control

COC1=CC(=O)C2CC=CC3CC(=O)OC1C32CO (configuration not stated)
inactive: [8] 113 % of control | [9] 103 % of control | [10] 101 % of control

CCOC(=O)c1ccc(N=NC2Sc3nc4ccccc4n3C2=O)cc1 (configuration not stated)
inactive: dose: 7.5 mg/kg/injection, schedule: Q01DX005 (ip), vehicle: Klucel (hydroxypropylcellulose) (HPC) 97 % of control | dose: 15.0 mg/kg/injection, schedule: Q01DX005 (ip), vehicle: Klucel (hydroxypropylcellulose) (HPC) 92 % of control | dose: 30.0 mg/kg/injection, schedule: Q01DX005 (ip), vehicle: Klucel (hydroxypropylcellulose) (HPC) 90 % of control
